From US10538555B2, “Macrocyclic inhibitors of the PD-1/PD-L1 and CD80(B7-1)/PD-L1 protein/protein interactions” (BRISTOL-MYERS SQUIBB COMPANY, priority 2014, dated 2020)
*1 amine or outer side, *2 acyl side, *3 side chain or, on linkers, in order; H or OH if unused. Where a SMILES comes first, the peptide text is derived from it. Bridges are numbered along the chain shown (N, C = ends). [ ]: non-standard residue; d: D form. ξ: configuration not given here. Phe(3,4,5-F3) = N[C@@H](Cc1cc(F)c(F)c(F)c1)C(=O)O; Phe(3,4-F2) = N[C@@H](Cc1ccc(F)c(F)c1)C(=O)O; d(cisHyp) = O=C(O)[C@H]1C[C@@H](O)CN1; NMeF = CN[C@@H](Cc1ccccc1)C(=O)O; X1 = O=C([C@H]1COCCN1[*:1])[*:2]; dHyp = O=C(O)[C@H]1C[C@H](O)CN1; NMeNle = CCCC[C@H](NC)C(=O)O; ξY = NC(Cc1ccc(O)cc1)C(=O)O; Orn = NCCC[C@H](N)C(=O)O; Dab = NCC[C@H](N)C(=O)O; Dap = NC[C@H](N)C(=O)O

target: T1, Human PD-L1/PD-1 (Homo sapiens, UniProt Q9NZQ7); test: HTRF Human PD-L1/PD-1 binding assay (PD-1-Ig/PD-L1-His); settings: PD-L1-His 10 nM, PD-1-Ig 20 nM; class symbol; read-out: HTRF Human PD-L1/PD-1 Binding Assay IC50 Range
T1 construct: TVMV protease cleavage site (C); made in house; host or cells: HEK293T cells
T1 sequence (Q9NZQ7 with tags, fused parts or gaps): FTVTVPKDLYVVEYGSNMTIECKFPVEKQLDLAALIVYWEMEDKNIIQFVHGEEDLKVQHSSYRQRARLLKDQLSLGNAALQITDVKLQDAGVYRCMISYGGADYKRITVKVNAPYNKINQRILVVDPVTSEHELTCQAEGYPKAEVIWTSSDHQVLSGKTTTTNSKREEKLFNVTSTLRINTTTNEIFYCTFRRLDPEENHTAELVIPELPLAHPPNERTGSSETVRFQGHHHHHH
In short: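 Truncated Fc-fused human PD-1 (aa 25-167) at 20 nM and His-tagged PD-L1 (aa 18-239) at 10 nM final are used, with peptides preincubated 15 min with PD-L1. Detection uses europium-cryptate anti-Ig and APC anti-His antibodies; 665/620 nm ratio.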

Structure (SMILES) | IC50
CCCC[C@H]1C(=O)N2C[C@H](O)C[C@@H]2C(=O)N[C@@H](CC(=O)O)C(=O)N[C@@H](C(C)C)C(=O)N(C)[C@@H](Cc2ccccc2)C(=O)N[C@@H](CCC(N)=O)C(=O)N2C[C@H](O)C[C@@H]2C(=O)N[C@@H](Cc2c[nH]c3ccccc23)C(=O)N[C@@H](Cc2ccc(O)cc2)C(=O)N[C@@H](CCC(=O)O)C(=O)N[C@H](C(=O)NCC(N)=O)CSCC(=O)N[C@@H](Cc2ccc(F)c(F)c2)C(=O)N(C)[C@@H](Cc2ccccc2)C(=O)N1C [Example 9315] ({CH2CO}-[Phe(3,4-F2)][NMeF][NMeNle][d(cisHyp)]DV[NMeF]Q[d(cisHyp)]WYECG-NH2; thioether N-13) | 10 to 99.9 nM
CCCC[C@H]1C(=O)N2C[C@H](O)C[C@@H]2C(=O)N[C@@H](CC(=O)O)C(=O)N[C@@H](C(C)C)C(=O)N(C)[C@@H](Cc2ccccc2)C(=O)N[C@@H](CC(N)=O)C(=O)N2C[C@H](O)C[C@@H]2C(=O)N[C@@H](Cc2c[nH]c3ccccc23)C(=O)NC(Cc2ccc(O)cc2)C(=O)N[C@@H](CCC(=O)O)C(=O)N[C@H](C(=O)NCC(N)=O)CSCC(=O)N[C@@H](Cc2ccc(F)c(F)c2)C(=O)N(C)[C@@H](Cc2ccccc2)C(=O)N1C (some centres unmarked) [Example 9317] ({CH2CO}-[Phe(3,4-F2)][NMeF][NMeNle][d(cisHyp)]DV[NMeF]N[d(cisHyp)]W[ξY]ECG-NH2; thioether N-13) | 1 to 9.9 nM
CCCC[C@H]1C(=O)N2C[C@H](O)C[C@@H]2C(=O)N[C@@H](CC(=O)O)C(=O)N[C@@H](C(C)C)C(=O)N(C)[C@@H](Cc2ccccc2)C(=O)N[C@@H](CCCCN)C(=O)N2C[C@H](O)C[C@@H]2C(=O)N[C@@H](Cc2c[nH]c3ccccc23)C(=O)N[C@@H](Cc2ccc(O)cc2)C(=O)N[C@@H](CC(C)C)C(=O)N[C@H](C(=O)NCC(N)=O)CSCC(=O)N[C@@H](Cc2ccc(F)c(F)c2)C(=O)N(C)[C@@H](Cc2ccccc2)C(=O)N1C [Example 9318] ({CH2CO}-[Phe(3,4-F2)][NMeF][NMeNle][d(cisHyp)]DV[NMeF]K[d(cisHyp)]WYLCG-NH2; thioether N-13) | 1 to 9.9 nM
CCCC[C@H]1C(=O)N2C[C@H](O)C[C@@H]2C(=O)N[C@@H](CC(=O)O)C(=O)N[C@@H](C(C)C)C(=O)N(C)[C@@H](Cc2ccccc2)C(=O)N[C@@H](CC(=O)O)C(=O)N2C[C@H](O)C[C@@H]2C(=O)N[C@@H](Cc2c[nH]c3ccccc23)C(=O)N[C@@H](Cc2ccc(O)cc2)C(=O)N[C@@H](CC(C)C)C(=O)N[C@H](C(=O)NCC(N)=O)CSCC(=O)N[C@@H](Cc2cc(F)c(F)c(F)c2)C(=O)N(C)[C@@H](Cc2ccccc2)C(=O)N1C [Example 9319] ({CH2CO}-[Phe(3,4,5-F3)][NMeF][NMeNle][d(cisHyp)]DV[NMeF]D[d(cisHyp)]WYLCG-NH2; thioether N-13) | 1 to 9.9 nM
CCCC[C@H]1C(=O)N2C[C@H](O)C[C@@H]2C(=O)N[C@@H](CC(=O)O)C(=O)N[C@@H](C(C)C)C(=O)N(C)[C@@H](Cc2ccccc2)C(=O)N[C@@H](CCC(N)=O)C(=O)N2C[C@H](O)C[C@@H]2C(=O)N[C@@H](Cc2c[nH]c3ccccc23)C(=O)N[C@@H](Cc2ccc(O)cc2)C(=O)N[C@@H](CC(C)C)C(=O)N[C@H](C(=O)NCC(N)=O)CSCC(=O)N[C@@H](Cc2cc(F)c(F)c(F)c2)C(=O)N(C)[C@@H](Cc2ccccc2)C(=O)N1C [Example 9320] ({CH2CO}-[Phe(3,4,5-F3)][NMeF][NMeNle][d(cisHyp)]DV[NMeF]Q[d(cisHyp)]WYLCG-NH2; thioether N-13) | 1 to 9.9 nM
CCCC[C@H]1C(=O)N2C[C@@H](O)C[C@@H]2C(=O)N[C@@H](CC(=O)O)C(=O)N[C@@H](C(C)C)C(=O)N(C)[C@@H](Cc2ccccc2)C(=O)N[C@@H](CCC(=O)O)C(=O)N2CCOC[C@@H]2C(=O)N[C@@H](Cc2c[nH]c3ccccc23)C(=O)N[C@@H](Cc2ccc(O)cc2)C(=O)N[C@@H](CCCN)C(=O)N[C@H](C(=O)NCC(N)=O)CSCC(=O)N[C@@H](Cc2cc(F)c(F)c(F)c2)C(=O)N(C)[C@@H](Cc2ccccc2)C(=O)N1C [Example 9321] ({CH2CO}-[Phe(3,4,5-F3)][NMeF][NMeNle][dHyp]DV[NMeF]E[X1]WY[Orn]CG-NH2; thioether N-13) | 1 to 9.9 nM
CCCC[C@H]1C(=O)N2C[C@H](O)C[C@@H]2C(=O)N[C@@H](CC(=O)O)C(=O)N[C@@H](C(C)C)C(=O)N(C)[C@@H](Cc2ccccc2)C(=O)N[C@@H](Cc2ccc(O)cc2)C(=O)N2C[C@H](O)C[C@@H]2C(=O)N[C@@H](Cc2c[nH]c3ccccc23)C(=O)N[C@@H](Cc2ccc(O)cc2)C(=O)N[C@@H](CCCCN)C(=O)N[C@H](C(=O)NCC(N)=O)CSCC(=O)N[C@@H](Cc2cc(F)c(F)c(F)c2)C(=O)N(C)[C@@H](Cc2ccccc2)C(=O)N1C [Example 9322] ({CH2CO}-[Phe(3,4,5-F3)][NMeF][NMeNle][d(cisHyp)]DV[NMeF]Y[d(cisHyp)]WYKCG-NH2; thioether N-13) | 1 to 9.9 nM
CCCC[C@H]1C(=O)N2C[C@H](O)C[C@@H]2C(=O)N[C@@H](CC(=O)O)C(=O)N[C@@H](C(C)C)C(=O)N(C)[C@@H](Cc2ccccc2)C(=O)N[C@@H](Cc2ccc(O)cc2)C(=O)N2C[C@H](O)C[C@@H]2C(=O)N[C@@H](Cc2c[nH]c3ccccc23)C(=O)N[C@@H](Cc2ccc(O)cc2)C(=O)N[C@@H](CCCN)C(=O)N[C@H](C(=O)NCC(N)=O)CSCC(=O)N[C@@H](Cc2cc(F)c(F)c(F)c2)C(=O)N(C)[C@@H](Cc2ccccc2)C(=O)N1C [Example 9323] ({CH2CO}-[Phe(3,4,5-F3)][NMeF][NMeNle][d(cisHyp)]DV[NMeF]Y[d(cisHyp)]WY[Orn]CG-NH2; thioether N-13) | 1 to 9.9 nM
CCCC[C@H]1C(=O)N2C[C@H](O)C[C@@H]2C(=O)N[C@@H](CC(=O)O)C(=O)N[C@@H](C(C)C)C(=O)N(C)[C@@H](Cc2ccccc2)C(=O)N[C@@H](Cc2ccc(O)cc2)C(=O)N2C[C@H](O)C[C@@H]2C(=O)N[C@@H](Cc2c[nH]c3ccccc23)C(=O)N[C@@H](Cc2ccc(O)cc2)C(=O)N[C@@H](CCN)C(=O)N[C@H](C(=O)NCC(N)=O)CSCC(=O)N[C@@H](Cc2cc(F)c(F)c(F)c2)C(=O)N(C)[C@@H](Cc2ccccc2)C(=O)N1C [Example 9324] ({CH2CO}-[Phe(3,4,5-F3)][NMeF][NMeNle][d(cisHyp)]DV[NMeF]Y[d(cisHyp)]WY[Dab]CG-NH2; thioether N-13) | 1 to 9.9 nM
CCCC[C@H]1C(=O)N2C[C@H](O)C[C@@H]2C(=O)N[C@@H](CC(=O)O)C(=O)N[C@@H](C(C)C)C(=O)N(C)[C@@H](Cc2ccccc2)C(=O)N[C@@H](Cc2ccc(O)cc2)C(=O)N2C[C@H](O)C[C@@H]2C(=O)N[C@@H](Cc2c[nH]c3ccccc23)C(=O)N[C@@H](Cc2ccc(O)cc2)C(=O)N[C@@H](CN)C(=O)N[C@H](C(=O)NCC(N)=O)CSCC(=O)N[C@@H](Cc2cc(F)c(F)c(F)c2)C(=O)N(C)[C@@H](Cc2ccccc2)C(=O)N1C [Example 9325] ({CH2CO}-[Phe(3,4,5-F3)][NMeF][NMeNle][d(cisHyp)]DV[NMeF]Y[d(cisHyp)]WY[Dap]CG-NH2; thioether N-13) | 1 to 9.9 nM
CCCC[C@H]1C(=O)N2C[C@H](O)C[C@@H]2C(=O)N[C@@H](CC(=O)O)C(=O)N[C@@H](C(C)C)C(=O)N(C)[C@@H](Cc2ccccc2)C(=O)N[C@@H](Cc2ccc(O)cc2)C(=O)N2C[C@H](O)C[C@@H]2C(=O)N[C@@H](Cc2c[nH]c3ccccc23)C(=O)N[C@@H](Cc2ccc(O)cc2)C(=O)N[C@@H](CCC(=O)O)C(=O)N[C@H](C(=O)NCC(N)=O)CSCC(=O)N[C@@H](Cc2cc(F)c(F)c(F)c2)C(=O)N(C)[C@@H](Cc2ccccc2)C(=O)N1C [Example 9326] ({CH2CO}-[Phe(3,4,5-F3)][NMeF][NMeNle][d(cisHyp)]DV[NMeF]Y[d(cisHyp)]WYECG-NH2; thioether N-13) | 10 to 99.9 nM
CCCC[C@H]1C(=O)N2C[C@H](O)C[C@@H]2C(=O)N[C@@H](CC(=O)O)C(=O)N[C@@H](C(C)C)C(=O)N(C)[C@@H](Cc2ccccc2)C(=O)N[C@@H](Cc2ccc(O)cc2)C(=O)N2C[C@H](O)C[C@@H]2C(=O)N[C@@H](Cc2c[nH]c3ccccc23)C(=O)N[C@@H](Cc2ccc(O)cc2)C(=O)N[C@@H](CC(=O)O)C(=O)N[C@H](C(=O)NCC(N)=O)CSCC(=O)N[C@@H](Cc2cc(F)c(F)c(F)c2)C(=O)N(C)[C@@H](Cc2ccccc2)C(=O)N1C [Example 9327] ({CH2CO}-[Phe(3,4,5-F3)][NMeF][NMeNle][d(cisHyp)]DV[NMeF]Y[d(cisHyp)]WYDCG-NH2; thioether N-13) | 10 to 99.9 nM
CCCC[C@H]1C(=O)N2C[C@H](O)C[C@@H]2C(=O)N[C@@H](CC(=O)O)C(=O)N[C@@H](C(C)C)C(=O)N(C)[C@@H](Cc2ccccc2)C(=O)N[C@@H](Cc2ccc(O)cc2)C(=O)N2C[C@H](O)C[C@@H]2C(=O)N[C@@H](Cc2c[nH]c3ccccc23)C(=O)N[C@@H](Cc2ccc(O)cc2)C(=O)N[C@@H](CCC(N)=O)C(=O)N[C@H](C(=O)NCC(N)=O)CSCC(=O)N[C@@H](Cc2cc(F)c(F)c(F)c2)C(=O)N(C)[C@@H](Cc2ccccc2)C(=O)N1C [Example 9328] ({CH2CO}-[Phe(3,4,5-F3)][NMeF][NMeNle][d(cisHyp)]DV[NMeF]Y[d(cisHyp)]WYQCG-NH2; thioether N-13) | 10 to 99.9 nM
CCCC[C@H]1C(=O)N2C[C@H](O)C[C@@H]2C(=O)N[C@@H](CC(=O)O)C(=O)N[C@@H](C(C)C)C(=O)N(C)[C@@H](Cc2ccccc2)C(=O)N[C@@H](Cc2ccc(O)cc2)C(=O)N2C[C@H](O)C[C@@H]2C(=O)N[C@@H](Cc2c[nH]c3ccccc23)C(=O)N[C@@H](Cc2ccc(O)cc2)C(=O)N[C@@H](CC(N)=O)C(=O)N[C@H](C(=O)NCC(N)=O)CSCC(=O)N[C@@H](Cc2cc(F)c(F)c(F)c2)C(=O)N(C)[C@@H](Cc2ccccc2)C(=O)N1C [Example 9329] ({CH2CO}-[Phe(3,4,5-F3)][NMeF][NMeNle][d(cisHyp)]DV[NMeF]Y[d(cisHyp)]WYNCG-NH2; thioether N-13) | 1 to 9.9 nM
